Reference: patent publication US9249129B2, “Morpholino substituted urea derivatives as mTOR inhibitors” (CELLZOME LIMITED, priority 2010, dated 2016)

Columns and labels:
Assay in all cases: kinobeads assay with mass spectrometry detection of kinases (kinase selectivity profile)
Assay type in all cases: binding
kinases (kinome) [1] = target: T1, kinases (kinome) (Homo sapiens, UniProt O00329); settings: PIK3Cd (Lipid Kinase), IPI00384817
T1 construct: determined in kinobeads assays with mass spectrometry detection of kinases as described previously; endogenous in cells; host or cells: cell lysate
T1 sequence (O00329 1-1044): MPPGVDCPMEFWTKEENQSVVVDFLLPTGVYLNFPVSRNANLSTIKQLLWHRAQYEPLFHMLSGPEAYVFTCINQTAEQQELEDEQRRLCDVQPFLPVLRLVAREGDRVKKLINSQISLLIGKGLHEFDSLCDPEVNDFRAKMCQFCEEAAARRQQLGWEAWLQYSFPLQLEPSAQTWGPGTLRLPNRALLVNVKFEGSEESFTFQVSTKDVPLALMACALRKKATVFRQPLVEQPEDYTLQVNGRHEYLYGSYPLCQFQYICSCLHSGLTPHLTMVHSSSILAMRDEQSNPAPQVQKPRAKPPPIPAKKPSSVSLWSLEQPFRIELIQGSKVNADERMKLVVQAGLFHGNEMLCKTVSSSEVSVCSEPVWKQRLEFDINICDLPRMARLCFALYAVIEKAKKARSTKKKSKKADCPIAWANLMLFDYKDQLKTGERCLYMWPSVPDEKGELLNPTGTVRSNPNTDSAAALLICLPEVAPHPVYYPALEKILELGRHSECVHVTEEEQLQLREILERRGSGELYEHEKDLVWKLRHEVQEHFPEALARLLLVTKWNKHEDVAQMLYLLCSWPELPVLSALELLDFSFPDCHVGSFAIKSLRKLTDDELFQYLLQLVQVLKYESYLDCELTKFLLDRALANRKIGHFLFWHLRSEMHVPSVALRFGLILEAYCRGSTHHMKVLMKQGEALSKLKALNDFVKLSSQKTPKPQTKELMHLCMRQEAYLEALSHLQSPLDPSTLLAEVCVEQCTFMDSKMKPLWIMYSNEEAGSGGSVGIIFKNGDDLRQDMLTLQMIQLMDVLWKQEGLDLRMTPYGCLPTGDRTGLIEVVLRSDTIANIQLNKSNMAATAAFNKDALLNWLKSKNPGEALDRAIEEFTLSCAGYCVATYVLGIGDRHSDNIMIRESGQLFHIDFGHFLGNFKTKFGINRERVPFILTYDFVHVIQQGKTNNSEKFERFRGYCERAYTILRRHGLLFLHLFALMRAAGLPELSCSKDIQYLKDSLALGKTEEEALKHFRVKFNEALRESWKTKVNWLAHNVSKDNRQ
Text: (§1) The protein kinase complement of the human genome (the kinome) was described previously (Manning et al., 2002. Science 298(5600):1912-1934). Sequence accession numbers are defined by the International Protein Index (IPI) (Kersey et al., 2004. Proteomics 4(7):1985-1988).

kinases (kinome) [2] = target: T2, kinases (kinome) (Homo sapiens, UniProt O15530); settings: PDK1 (AGC), IPI00002538
T2 construct: determined in kinobeads assays with mass spectrometry detection of kinases as described previously; endogenous in cells; host or cells: cell lysate
T2 sequence (O15530 1-556): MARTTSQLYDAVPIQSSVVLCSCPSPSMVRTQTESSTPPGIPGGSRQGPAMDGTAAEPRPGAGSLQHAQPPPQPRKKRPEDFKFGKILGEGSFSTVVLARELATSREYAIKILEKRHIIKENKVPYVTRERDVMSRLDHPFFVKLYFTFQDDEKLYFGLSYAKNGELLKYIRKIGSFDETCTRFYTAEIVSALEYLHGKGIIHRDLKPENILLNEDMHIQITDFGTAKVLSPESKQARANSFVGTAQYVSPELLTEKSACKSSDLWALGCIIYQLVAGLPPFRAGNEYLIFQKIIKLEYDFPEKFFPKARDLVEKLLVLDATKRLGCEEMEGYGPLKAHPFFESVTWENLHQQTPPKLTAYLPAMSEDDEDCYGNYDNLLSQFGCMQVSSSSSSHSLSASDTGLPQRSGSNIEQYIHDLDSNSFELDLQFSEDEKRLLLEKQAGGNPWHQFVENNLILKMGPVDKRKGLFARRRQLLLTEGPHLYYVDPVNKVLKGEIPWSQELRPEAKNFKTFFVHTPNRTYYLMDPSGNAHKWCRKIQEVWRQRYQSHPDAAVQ
Text: as §1

kinases (kinome) [3] = target: T3, kinases (kinome) (Homo sapiens, UniProt P06239); settings: LCK (TK), IPI00515097
T3 construct: determined in kinobeads assays with mass spectrometry detection of kinases as described previously; endogenous in cells; host or cells: cell lysate
T3 sequence (P06239 whole entry): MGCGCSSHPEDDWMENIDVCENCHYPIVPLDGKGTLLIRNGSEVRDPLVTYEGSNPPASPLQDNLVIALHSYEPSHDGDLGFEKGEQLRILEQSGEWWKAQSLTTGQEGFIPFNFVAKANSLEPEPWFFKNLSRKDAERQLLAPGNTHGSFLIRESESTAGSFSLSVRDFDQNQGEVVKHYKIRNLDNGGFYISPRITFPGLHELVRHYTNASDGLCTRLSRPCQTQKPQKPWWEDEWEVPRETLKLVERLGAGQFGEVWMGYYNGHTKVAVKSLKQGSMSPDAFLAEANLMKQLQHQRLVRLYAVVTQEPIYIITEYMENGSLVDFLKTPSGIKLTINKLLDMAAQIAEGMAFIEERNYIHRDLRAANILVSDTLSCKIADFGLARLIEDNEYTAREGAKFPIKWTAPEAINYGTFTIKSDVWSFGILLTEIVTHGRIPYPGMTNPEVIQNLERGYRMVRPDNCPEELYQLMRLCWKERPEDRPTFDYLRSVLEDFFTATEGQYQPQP
Text: as §1

kinases (kinome) [4] = target: T4, kinases (kinome) (Homo sapiens, UniProt P07948); settings: LYN (TK), IPI00298625
T4 construct: determined in kinobeads assays with mass spectrometry detection of kinases as described previously; endogenous in cells; host or cells: cell lysate
T4 sequence (P07948 whole entry): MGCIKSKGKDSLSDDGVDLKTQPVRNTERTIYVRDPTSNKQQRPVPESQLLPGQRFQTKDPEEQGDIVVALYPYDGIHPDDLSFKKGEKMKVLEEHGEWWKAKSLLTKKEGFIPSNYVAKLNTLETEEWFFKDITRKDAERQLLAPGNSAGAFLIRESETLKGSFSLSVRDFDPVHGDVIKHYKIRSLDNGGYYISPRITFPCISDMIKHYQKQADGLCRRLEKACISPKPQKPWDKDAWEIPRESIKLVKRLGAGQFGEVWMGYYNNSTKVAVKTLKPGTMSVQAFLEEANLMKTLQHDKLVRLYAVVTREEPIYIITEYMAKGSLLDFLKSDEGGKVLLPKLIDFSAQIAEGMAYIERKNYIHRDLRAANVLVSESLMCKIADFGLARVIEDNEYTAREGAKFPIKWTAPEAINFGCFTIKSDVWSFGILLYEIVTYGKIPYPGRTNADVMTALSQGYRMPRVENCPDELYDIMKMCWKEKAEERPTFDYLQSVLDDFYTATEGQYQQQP
Text: as §1

kinases (kinome) [5] = target: T5, kinases (kinome) (Homo sapiens, UniProt P12931); settings: SRC (TK), IPI00328867
T5 construct: determined in kinobeads assays with mass spectrometry detection of kinases as described previously; endogenous in cells; host or cells: cell lysate
T5 sequence (P12931 whole entry): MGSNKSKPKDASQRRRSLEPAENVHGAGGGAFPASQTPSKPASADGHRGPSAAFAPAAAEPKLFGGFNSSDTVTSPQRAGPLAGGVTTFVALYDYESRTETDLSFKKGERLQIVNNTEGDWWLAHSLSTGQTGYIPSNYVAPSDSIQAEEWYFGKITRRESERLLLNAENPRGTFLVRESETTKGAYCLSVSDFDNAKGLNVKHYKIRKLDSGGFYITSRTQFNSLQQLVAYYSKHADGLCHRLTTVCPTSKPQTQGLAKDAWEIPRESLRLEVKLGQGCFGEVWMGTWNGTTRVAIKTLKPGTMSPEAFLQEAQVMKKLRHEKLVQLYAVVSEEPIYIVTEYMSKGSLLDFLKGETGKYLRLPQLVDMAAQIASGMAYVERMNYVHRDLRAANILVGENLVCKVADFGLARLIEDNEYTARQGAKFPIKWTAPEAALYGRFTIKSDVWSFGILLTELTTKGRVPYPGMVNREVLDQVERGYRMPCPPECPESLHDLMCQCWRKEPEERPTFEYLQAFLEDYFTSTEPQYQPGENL
Text: as §1

kinases (kinome) [6] = target: T6, kinases (kinome) (Homo sapiens, UniProt P15056); settings: BRAF (TKL), IPI00303797
T6 construct: determined in kinobeads assays with mass spectrometry detection of kinases as described previously; endogenous in cells; host or cells: cell lysate
T6 sequence (P15056 whole entry): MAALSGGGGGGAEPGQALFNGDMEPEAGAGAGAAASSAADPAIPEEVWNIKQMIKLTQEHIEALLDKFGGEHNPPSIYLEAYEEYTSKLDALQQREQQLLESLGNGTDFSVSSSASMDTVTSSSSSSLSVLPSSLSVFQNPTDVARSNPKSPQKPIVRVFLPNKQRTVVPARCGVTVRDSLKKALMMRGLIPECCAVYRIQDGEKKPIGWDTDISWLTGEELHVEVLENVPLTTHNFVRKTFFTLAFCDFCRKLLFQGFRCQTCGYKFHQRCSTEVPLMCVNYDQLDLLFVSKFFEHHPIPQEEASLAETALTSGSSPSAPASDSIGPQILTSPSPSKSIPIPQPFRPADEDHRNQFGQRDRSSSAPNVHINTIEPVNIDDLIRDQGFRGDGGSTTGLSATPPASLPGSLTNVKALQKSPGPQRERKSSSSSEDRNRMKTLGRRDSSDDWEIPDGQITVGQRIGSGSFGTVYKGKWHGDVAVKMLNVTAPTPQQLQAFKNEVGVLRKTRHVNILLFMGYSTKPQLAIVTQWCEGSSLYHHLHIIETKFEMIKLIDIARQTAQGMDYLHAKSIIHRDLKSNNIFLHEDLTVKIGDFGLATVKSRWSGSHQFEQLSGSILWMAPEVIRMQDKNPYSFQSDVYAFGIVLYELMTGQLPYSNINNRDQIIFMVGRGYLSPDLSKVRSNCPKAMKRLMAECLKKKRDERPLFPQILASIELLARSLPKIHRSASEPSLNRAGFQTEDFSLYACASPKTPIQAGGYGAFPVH
Text: as §1

kinases (kinome) [7] = target: T7, kinases (kinome) (Homo sapiens, UniProt P24941); settings: CDK2 (CMGC), IPI00031681
T7 construct: determined in kinobeads assays with mass spectrometry detection of kinases as described previously; endogenous in cells; host or cells: cell lysate
Text: as §1

kinases (kinome) [8] = target: T8, kinases (kinome) (Homo sapiens, UniProt P43405); settings: SYK (TK), IPI00018597
T8 construct: determined in kinobeads assays with mass spectrometry detection of kinases as described previously; endogenous in cells; host or cells: cell lysate
Text: as §1

kinases (kinome) [9] = target: T9, kinases (kinome) (Homo sapiens, UniProt P48736); settings: PIK3Cg (Lipid Kinase), IPI00292690
T9 construct: determined in kinobeads assays with mass spectrometry detection of kinases as described previously; endogenous in cells; host or cells: cell lysate
T9 sequence (P48736 whole entry): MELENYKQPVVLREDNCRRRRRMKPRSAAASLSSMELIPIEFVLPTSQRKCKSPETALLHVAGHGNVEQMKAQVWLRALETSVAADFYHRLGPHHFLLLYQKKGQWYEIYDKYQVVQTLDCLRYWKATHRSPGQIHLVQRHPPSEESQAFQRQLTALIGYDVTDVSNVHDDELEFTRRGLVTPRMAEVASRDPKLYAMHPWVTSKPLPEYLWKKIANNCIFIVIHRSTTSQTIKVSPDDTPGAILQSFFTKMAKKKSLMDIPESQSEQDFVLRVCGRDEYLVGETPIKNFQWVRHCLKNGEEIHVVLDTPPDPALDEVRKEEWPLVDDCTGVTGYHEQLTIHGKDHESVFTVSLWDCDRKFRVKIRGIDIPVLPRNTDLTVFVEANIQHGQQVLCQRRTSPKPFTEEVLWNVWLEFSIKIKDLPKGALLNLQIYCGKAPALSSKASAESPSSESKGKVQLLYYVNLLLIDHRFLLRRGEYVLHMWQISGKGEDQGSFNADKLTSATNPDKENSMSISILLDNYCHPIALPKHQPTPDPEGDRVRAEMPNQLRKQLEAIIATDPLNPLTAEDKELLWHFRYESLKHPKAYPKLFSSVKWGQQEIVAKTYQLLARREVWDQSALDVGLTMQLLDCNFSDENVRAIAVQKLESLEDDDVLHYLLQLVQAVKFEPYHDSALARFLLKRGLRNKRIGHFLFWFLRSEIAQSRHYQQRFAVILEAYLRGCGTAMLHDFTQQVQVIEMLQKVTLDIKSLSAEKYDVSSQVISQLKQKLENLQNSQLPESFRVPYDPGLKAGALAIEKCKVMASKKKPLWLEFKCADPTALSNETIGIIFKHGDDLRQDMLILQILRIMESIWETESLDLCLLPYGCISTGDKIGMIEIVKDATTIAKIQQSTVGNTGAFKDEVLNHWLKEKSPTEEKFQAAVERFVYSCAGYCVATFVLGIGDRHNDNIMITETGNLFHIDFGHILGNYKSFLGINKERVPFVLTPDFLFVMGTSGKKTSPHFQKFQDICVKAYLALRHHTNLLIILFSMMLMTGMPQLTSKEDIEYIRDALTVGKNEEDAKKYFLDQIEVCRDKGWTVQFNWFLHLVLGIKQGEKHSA
Text: as §1

kinases (kinome) [10] = target: T10, kinases (kinome) (Homo sapiens, UniProt P49674); settings: CK1e (CK1), IPI00027729
T10 construct: determined in kinobeads assays with mass spectrometry detection of kinases as described previously; endogenous in cells; host or cells: cell lysate
Text: as §1

kinases (kinome) [11] = target: T11, kinases (kinome) (Homo sapiens, UniProt Q08345); settings: DDR1 (TK), IPI00657861
T11 construct: determined in kinobeads assays with mass spectrometry detection of kinases as described previously; endogenous in cells; host or cells: cell lysate
T11 sequence (Q08345 19-913): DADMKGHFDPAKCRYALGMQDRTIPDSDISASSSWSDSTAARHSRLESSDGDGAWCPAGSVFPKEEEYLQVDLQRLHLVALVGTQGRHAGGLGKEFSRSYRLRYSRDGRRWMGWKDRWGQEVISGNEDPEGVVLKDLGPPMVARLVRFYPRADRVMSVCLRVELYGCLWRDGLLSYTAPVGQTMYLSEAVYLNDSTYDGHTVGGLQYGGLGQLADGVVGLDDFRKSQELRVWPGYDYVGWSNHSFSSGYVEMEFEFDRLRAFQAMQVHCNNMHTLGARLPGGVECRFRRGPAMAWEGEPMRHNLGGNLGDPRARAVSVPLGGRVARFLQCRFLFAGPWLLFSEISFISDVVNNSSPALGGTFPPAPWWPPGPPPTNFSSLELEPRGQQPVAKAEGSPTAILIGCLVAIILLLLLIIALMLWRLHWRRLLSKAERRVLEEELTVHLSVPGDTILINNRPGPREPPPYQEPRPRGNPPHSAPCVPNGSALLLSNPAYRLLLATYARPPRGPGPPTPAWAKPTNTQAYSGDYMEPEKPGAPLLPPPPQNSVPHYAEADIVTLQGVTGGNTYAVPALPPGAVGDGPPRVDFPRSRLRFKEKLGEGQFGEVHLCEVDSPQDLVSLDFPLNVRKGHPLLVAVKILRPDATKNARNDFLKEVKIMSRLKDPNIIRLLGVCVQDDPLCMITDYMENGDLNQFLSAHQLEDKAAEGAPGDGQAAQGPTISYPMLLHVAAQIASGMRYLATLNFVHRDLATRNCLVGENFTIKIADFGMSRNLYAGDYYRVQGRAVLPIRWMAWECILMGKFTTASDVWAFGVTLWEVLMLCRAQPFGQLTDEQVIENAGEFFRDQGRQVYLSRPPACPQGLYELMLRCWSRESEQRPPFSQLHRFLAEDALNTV
Text: as §1

kinases (kinome) [12] = target: T12, kinases (kinome) (Homo sapiens, UniProt Q8TCG2); settings: PIK4C2B (Lipid Kinase), IPI00291068
T12 construct: determined in kinobeads assays with mass spectrometry detection of kinases as described previously; endogenous in cells; host or cells: cell lysate
T12 sequence (Q8TCG2 whole entry): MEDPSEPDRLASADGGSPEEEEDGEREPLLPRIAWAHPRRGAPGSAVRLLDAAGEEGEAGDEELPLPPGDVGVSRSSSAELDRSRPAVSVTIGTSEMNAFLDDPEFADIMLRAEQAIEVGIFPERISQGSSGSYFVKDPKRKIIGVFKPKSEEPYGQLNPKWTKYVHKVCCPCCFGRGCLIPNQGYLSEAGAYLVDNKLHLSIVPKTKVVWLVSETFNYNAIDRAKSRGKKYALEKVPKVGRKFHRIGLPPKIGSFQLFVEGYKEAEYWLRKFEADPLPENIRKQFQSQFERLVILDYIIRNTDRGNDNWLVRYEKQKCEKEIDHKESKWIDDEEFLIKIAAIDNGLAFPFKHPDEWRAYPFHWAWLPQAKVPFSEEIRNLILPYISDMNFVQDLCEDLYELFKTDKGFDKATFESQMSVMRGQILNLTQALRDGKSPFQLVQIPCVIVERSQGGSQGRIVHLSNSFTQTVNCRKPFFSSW
Text: as §1

Measured: IC50

C[C@H]1COCCN1c1nc(-c2ccc(NC(=O)NC3CC3)cc2)cc(-c2ccccc2S(C)(=O)=O)n1 [Example 4, (S)-1-cyclopropyl-3-(4-(2-(3-methylmorpholino)-6-(2-(methylsulfonyl)phenyl)pyrimidin-4-yl)phenyl)urea]
> 10 µM: all assays above

C[C@H]1COCCN1c1cc(-c2ccccc2S(C)(=O)=O)nc(-c2ccc(NC(=O)NC3CC3)cc2)n1 [Example 6, (S)-1-cyclopropyl-3-(4-(4-(3-methylmorpholino)-6-(2-(methylsulfonyl)phenyl)pyrimidin-2-yl)phenyl)urea]
> 10 µM: all assays above

CCNC(=O)Nc1ccc(-c2cc(-c3ccccc3C#N)nc(N3CCOC[C@@H]3C)n2)cc1 [Example 8, (S)-1-(4-(6-(2-cyanophenyl)-2-(3-methylmorpholino)pyrimidin-4-yl)phenyl)-3-ethylurea]
not listed: kinases (kinome) [3] | kinases (kinome) [11]
> 10 µM: all other assays above

C[C@H]1COCCN1c1nc(-c2ccc(NC(=O)NC3CC3)cc2)cc(-c2cc(F)ccc2S(C)(=O)=O)n1 [Example 40, (S)-1-cyclopropyl-3-(4-(6-(5-fluoro-2-(methylsulfonyl)phenyl)-2-(3-methylmorpholino)pyrimidin-4-yl)phenyl)urea]
> 10 µM: all assays above

C[C@H]1COCCN1c1cc(-c2ccccn2)nc(-c2ccc(NC(=O)NCCO)cc2)n1 [Example 43, (S)-1-(2-hydroxyethyl)-3-(4-(4-(3-methylmorpholino)-6-(pyridin-2-yl)pyrimidin-2-yl)phenyl)urea]
> 10 µM: all assays above

C[C@H]1COCCN1c1nc(-c2ccc(NC(=O)NC3CC3)cc2)cc(-c2cccnc2S(C)(=O)=O)n1 [Example 46, (S)-1-cyclopropyl-3-(4-(2-(3-methylmorpholino)-6-(2-(methylsulfonyl)pyridin-3-yl)pyrimidin-4-yl)phenyl)urea]
> 10 µM: all assays above

C[C@H]1COCCN1c1nc(-c2ccc(NC(=O)N[C@H]3CCC[C@@H]3O)cc2)cc(-c2cc(F)ccc2S(C)(=O)=O)n1 [Example 76, 1-(4-(6-(5-fluoro-2-(methylsulfonyl)phenyl)-2-((S)-3-methylmorpholino)pyrimidin-4-yl)phenyl)-3-((1S,2S)-2-hydroxycyclopentyl)urea]
> 10 µM: all assays above
